Measurements reported in patent US20240350432A1, “CENTRAL NERVOUS SYSTEM MODULATORS AS COVID-19 THERAPEUTICS” (priority 2023, published 2024).
Entries after “also recorded” stand apart in the source; their conditions may differ.

How the values were obtained:
Format in all cases: in vivo, mice
[1] = test system: pons and medulla; assay: Cresyl violet staining, semi-qualitative morphology ranking; conditions: COVID-19 positive; for cresyl violet morphological rank vs (−) control: rank 1-3
[2] = test system: myelin of the pons and medulla; assay: Black-Gold II Myelin staining, semi-qualitative myelination ranking
[3] = test system: GFAP; assay: GFAP immunofluorescence (reactive astrocytes), mean FL intensity; conditions: for mean GFAP FL intensity with progression of COVID-19 infection (time post-inoculation): COVID-19 positive groups, 3, 6, 10 days
[4] = test system: IBA1; assay: IBA1 immunofluorescence (microglia), mean FL intensity; conditions: for mean IBA1 FL intensity with progression of COVID-19 infection (time post-inoculation): COVID-19 positive groups, 3, 6, 10 days
[5] = COVID-19 positive, 6 days post-inoculation
[6] = COVID-19 positive, 3 days post-inoculation

Compound | cresyl violet morphological rank vs (−) control ([1]; 3 days post-inoculation) | cresyl violet morphological rank vs saline treatment ([1]; 6 days post-inoculation) | cresyl violet morphological rank vs (−) control ([1]; 6 days post-inoculation) | cresyl violet morphological rank vs saline treatment ([1]; 10 days post-inoculation) | Black-Gold II myelination ranking [2, 5] | Black-Gold II myelination ranking across time points post-inoculation ([2]; regardless of COVID-19 status) | mean GFAP FL intensity with progression of COVID-19 infection (time post-inoculation) [3] | preventative effect in COVID-19 induced neuroinflammation (GFAP and IBA1 FL intensity trends) ([3]; respiratory centers of the brain) | mean IBA1 FL intensity with progression of COVID-19 infection (time post-inoculation) [4] | cresyl violet morphological rank vs (−) control ([1]; 10 days post-inoculation) | Black-Gold II myelination ranking [2, 6] | Black-Gold II myelination ranking vs (−) control ([2]; COVID-19 positive, 10 days post-inoculation) | COVID-19 related changes in myelination, overall finding ([2]; respiratory centers of the brain, listed as Memantine) | GFAP FL intensity nonlinear fit over time, Best Fit ([3]; COVID-19 positive groups) | IBA1 FL intensity nonlinear fit over time, Best Fit ([4]; COVID-19 positive groups) | FL intensity vs saline and ifenprodil treated groups (FIG. 6B) [4, 6] | mean IBA1 FL intensity, COVID-19 positive vs negative group of same treatment ([4]; sacrificed 10 days post-virus inoculation)
CC(C(O)c1ccc(O)cc1)N1CCC(Cc2ccccc2)CC1 (stereo not shown) [ifenprodil] | no difference in morphological rank | increases morphological rank | increase in rankings | improve the morphological rank | increased myelination ranking | no differences; also recorded: no significant difference | significantly changed | did not have a preventative effect | significantly changed |  |  |  |  |  |  |  | 
CC12CC3CC(C)(C1)CC(N)(C3)C2 [memantine] |  |  | significantly lower than the negative control | improve the morphological rank | decreased myelination rankings |  | no change; also recorded: increasing time point was not associated with increasing mean GFAP FL intensity |  | increasing time point was not associated with decreasing mean IBA1 FL intensity; also recorded: no change | morphology rankings similar to the negative control groups; also recorded: no longer a difference in morphological rank | decreased myelination rankings | not significantly different | signs of demyelination | Horizontal Line | Horizonal Line | decreased expression of GFAP; also recorded: slightly lower | significantly decreased; also recorded: slightly lower
